From patent US20100029554A1, “Composition and Methods for Treatment of Congestive Heart Failure” (Amylin Pharmaceuticals, Inc., priority 2006, published 2010) come the findings set out here.

Data set [1] concerns GLP/GIP/CT cyclase, RIN-m5F cells. The data set can be described thus: GLP/GIP/CT Cyclase (RIN) assay. Type of data set: cell-based, rat. Conditions: cAMP, values without **. The method, boiled down: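 RIN-m5F rat insulinoma cells (2.5×10^4 per well) stimulated with serially diluted peptides for 30 min at room temperature in the dark. Lysed 4 h at room temperature; cAMP measured by AlphaScreen.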

The subject of data set [2] is GLP-1 cyclase, rat thyroid carcinoma cells (6-23). In words: GLP-1 Cyclase (6-23) assay. Type of data set: cell-based. Conditions: cAMP, 6-23 cells; values marked **. The procedure:
Five μl of serially diluted peptides are transferred to the 384-well assay plate. Rat thyroid carcinoma cells (6-23) are detached from a tissue culture flask with Versene and washed once in buffer. Then 6-23 cells are resusupended in buffer at 3.0×10^6 cells/ml. Then 10 μl cells (3.0×10^4 cells) are added to all wells of the assay plate and cells are stimulated at room temperature in the dark for 30 minutes. The reaction is terminated with 10 μl of lysis buffer and incubated at room temperature for 4 hrs in the dark. cAMP content is measured using Perkin Elmer AlphaScreen™ cAMP assay kit and results are read on a Perkin Elmer Fusion fluorometer. The assay is completed in 384-well plates at 25 μl volumes.

The nature of another data set: Plasma stability. Type of data set: in vitro ADME. Conditions: 20 μg/mL in plasma, 37° C., 0-5 hours. Summed up: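 Compound spiked into plasma at 20 μg/mL and incubated at 37° C for 0–5 h in triplicate. Each time point quenched with MeOH (1 part sample to 4 parts MeOH) and centrifuged. Remaining compound measured by LC-MS.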
Another data set relates to NH/Swiss mice. The data set can be described thus: Glucose lowering assay. Type of data set: in vivo, mouse. Conditions: IP, 2 nmol/kg, change in blood glucose relative to vehicle. The method, boiled down:
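Female NH/Swiss mice, food-restricted 2 h beforehand, received test sample IP at 1 or 2 nmol/kg or vehicle (10% DMSO saline). Tail blood glucose (glucose oxidase biosensor) was measured pre-dose and at 30-240 min, expressed as percent change versus vehicle; ANOVA with Dunnett's post test.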

On to `CC[C@H](C)[C@H](NC(=O)[C@H](Cc1ccccc1)NC(=O)[C@H](CC(C)C)NC(=O)[C@H](CCCNC(=N)N)NC(=O)[C@@H](NC(=O)[C@H](C)NC(=O)[C@H](CCC(=O)O)NC(=O)[C@H](CCC(=O)O)NC(=O)[C@H](CCC(=O)O)NC(=O)[C@H](CC(C)C)NC(=O)[C@H](Cc1ccc(O)cc1)NC(=O)[C@H](CCC(=O)O)NC(=O)[C@@H](NC(=O)[C@@H](NC(=O)[C@H](CC(=O)O)NC(=O)[C@H](CC(N)=O)NC(=O)[C@@H](NC(=O)[C@H](Cc1ccc(O)cc1)NC(=O)[C@@H](NC(=O)CNC(=O)[C@H](CCC(=O)O)NC(=O)CNC(=O)[C@@H](N)Cc1c[nH]cn1)[C@@H](C)O)[C@@H](C)O)C(C)C)[C@@H](C)O)C(C)C)C(=O)N[C@@H](CCC(=O)O)C(=O)N[C@@H](Cc1c[nH]c2ccccc12)C(=O)N[C@@H](CC(C)C)C(=O)N[C@@H](CCCCN)C(=O)N[C@@H](CCC(N)=O)C(=O)NCC(=O)NCC(=O)N1CCC[C@H]1C(=O)N[C@@H](CO)C(=O)N[C@@H](CO)C(=O)NCC(=O)N[C@@H](C)C(=O)N1CCC[C@H]1C(=O)N1CCC[C@H]1C(=O)N1CCC[C@H]1C(=O)N[C@@H](CO)C(N)=O` [Cmpd 5130], for which the EC50 (usually the midpoint of the concentration-response curve) in data set [1] was 0.89 nM; in data set [2], 0.0544 nM. Moreover, in the data set “Plasma stability”, the “plasma stability as compared to native GLP-1” value was “increased plasma stability”. Further, the “GLU LOWERING AUC240 @2 nmol/kg” value in the data set with NH/Swiss mice was −22%.
